Measurements as given in the NIST ThermoML archive (doi:10.1016/j.jct.2017.05.001).
± gives the expanded uncertainty stated by the source.

Test: wn = mass fraction of the nth substance listed
Conditions: Liquid; for mass density: Vibrating tube method

CN(C)CCO [2-(N,N-dimethylamino)ethanol] + O
mass density [kg/m3]
Conditions | w1 = 0.1005 | w1 = 0.202 | w1 = 0.3005 | w1 = 0.3995
333.15 K, 130000 kPa | – | 1018.6 ± 0.7 | 1012.4 ± 0.7 | 1005.5 ± 0.7
333.15 K, 140000 kPa | 1028.8 ± 0.7 | 1021.9 ± 0.7 | 1015.4 ± 0.7 | 1008.7 ± 0.7
353.15 K, 100 kPa | 965.2 ± 0.7 | 958.1 ± 0.7 | 950.2 ± 0.7 | 941.1 ± 0.7
353.15 K, 500 kPa | 965.3 ± 0.7 | 958.1 ± 0.7 | 950.3 ± 0.7 | 941.2 ± 0.7
353.15 K, 1000 kPa | 965.6 ± 0.7 | 958.4 ± 0.7 | 950.6 ± 0.7 | 941.4 ± 0.7
353.15 K, 2000 kPa | 966 ± 0.7 | 958.8 ± 0.7 | 951 ± 0.7 | 941.9 ± 0.7
353.15 K, 5000 kPa | 967.3 ± 0.7 | 960.1 ± 0.7 | 952.4 ± 0.7 | 943.3 ± 0.7
353.15 K, 10000 kPa | 969.5 ± 0.7 | 962.4 ± 0.7 | 954.7 ± 0.7 | 945.8 ± 0.7
353.15 K, 15000 kPa | 971.6 ± 0.7 | 964.5 ± 0.7 | 956.9 ± 0.7 | 948.1 ± 0.7
353.15 K, 20000 kPa | 973.8 ± 0.7 | 966.7 ± 0.7 | 959.1 ± 0.7 | 950.5 ± 0.7
353.15 K, 30000 kPa | 978 ± 0.7 | 971 ± 0.7 | 963.4 ± 0.7 | 954.9 ± 0.7
353.15 K, 40000 kPa | 982 ± 0.7 | 975 ± 0.7 | 967.5 ± 0.7 | 959.2 ± 0.7
353.15 K, 50000 kPa | 986 ± 0.7 | 978.9 ± 0.7 | 971.6 ± 0.7 | 963.3 ± 0.7
353.15 K, 60000 kPa | 989.9 ± 0.7 | 982.7 ± 0.7 | – | –

viscosity [mPa·s], 353.15 K
Conditions | 100 kPa | 5000 kPa | 10000 kPa | 15000 kPa | 20000 kPa | 25000 kPa | 30000 kPa | 40000 kPa | 60000 kPa
Concentric cylinders viscometry, w1 = 0.1 | 0.475 ± 0.011 | – | – | – | – | – | – | – | –
Concentric cylinders viscometry, w1 = 0.2 | 0.618 ± 0.013 | – | – | – | – | – | – | – | –
Concentric cylinders viscometry, w1 = 0.3 | 0.809 ± 0.017 | – | – | – | – | – | – | – | –
Concentric cylinders viscometry, w1 = 0.4 | 1.044 ± 0.022 | – | – | – | – | – | – | – | –
Falling or rolling sphere viscometry, w1 = 0.1005 | 0.4624 ± 0.015 | 0.4644 ± 0.015 | 0.4671 ± 0.015 | 0.4699 ± 0.015 | 0.472 ± 0.015 | 0.4744 ± 0.016 | 0.4772 ± 0.016 | 0.4824 ± 0.016 | 0.491 ± 0.016
Falling or rolling sphere viscometry, w1 = 0.202 | 0.6055 ± 0.02 | 0.6064 ± 0.02 | 0.6135 ± 0.02 | 0.6195 ± 0.02 | 0.6229 ± 0.02 | 0.6275 ± 0.021 | 0.6338 ± 0.021 | 0.6411 ± 0.021 | 0.659 ± 0.022
Falling or rolling sphere viscometry, w1 = 0.3005 | 0.8063 ± 0.026 | 0.812 ± 0.027 | 0.8213 ± 0.027 | 0.8321 ± 0.027 | 0.8407 ± 0.028 | 0.8485 ± 0.028 | 0.856 ± 0.028 | 0.875 ± 0.029 | 0.9078 ± 0.03
Falling or rolling sphere viscometry, w1 = 0.3995 | 1.05 ± 0.034 | 1.059 ± 0.035 | 1.074 ± 0.035 | 1.09 ± 0.036 | 1.105 ± 0.036 | 1.118 ± 0.037 | 1.135 ± 0.037 | 1.167 ± 0.038 | 1.225 ± 0.04
